How the values were obtained:
D1 receptor subtype = D1 receptor subtype (Homo sapiens, UniProt P21728); details: cited from earlier work
D4 receptor subtype = target: T1, D4 receptor subtype (Homo sapiens, UniProt P21917); details: cited from earlier work
T1 sequence (P21917 1-419): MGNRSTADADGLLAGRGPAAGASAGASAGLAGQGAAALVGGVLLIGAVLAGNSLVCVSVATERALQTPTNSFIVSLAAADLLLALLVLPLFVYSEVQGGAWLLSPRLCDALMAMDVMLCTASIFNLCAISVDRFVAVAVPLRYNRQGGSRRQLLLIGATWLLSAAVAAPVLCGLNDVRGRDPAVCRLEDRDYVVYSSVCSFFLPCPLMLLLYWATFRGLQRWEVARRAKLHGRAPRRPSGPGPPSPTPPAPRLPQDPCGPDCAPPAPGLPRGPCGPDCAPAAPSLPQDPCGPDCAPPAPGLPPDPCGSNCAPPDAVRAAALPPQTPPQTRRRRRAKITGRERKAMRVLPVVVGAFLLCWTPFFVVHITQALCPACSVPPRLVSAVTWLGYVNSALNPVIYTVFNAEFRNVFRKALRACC

D5 receptor subtype = D5 receptor subtype (Homo sapiens, UniProt P21918); details: cited from earlier work
Sequence of D5 receptor subtype (P21918 whole entry): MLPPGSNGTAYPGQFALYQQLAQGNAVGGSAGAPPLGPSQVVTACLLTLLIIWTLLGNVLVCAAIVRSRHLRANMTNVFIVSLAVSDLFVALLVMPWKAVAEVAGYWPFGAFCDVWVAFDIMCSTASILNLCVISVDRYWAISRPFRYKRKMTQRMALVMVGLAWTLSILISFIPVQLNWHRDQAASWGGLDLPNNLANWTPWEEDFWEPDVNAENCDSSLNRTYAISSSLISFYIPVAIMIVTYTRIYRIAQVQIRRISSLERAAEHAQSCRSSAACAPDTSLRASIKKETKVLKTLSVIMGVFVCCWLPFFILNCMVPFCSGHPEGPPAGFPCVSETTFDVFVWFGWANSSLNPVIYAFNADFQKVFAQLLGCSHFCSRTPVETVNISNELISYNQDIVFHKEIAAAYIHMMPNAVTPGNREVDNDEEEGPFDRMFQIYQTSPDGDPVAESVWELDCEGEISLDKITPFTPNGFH

5-HT2a receptor = 5-HT2a receptor (Homo sapiens, UniProt P28223); details: compared to other antipsychotics; cited from earlier work
Sequence of 5-HT2a receptor (P28223 whole entry): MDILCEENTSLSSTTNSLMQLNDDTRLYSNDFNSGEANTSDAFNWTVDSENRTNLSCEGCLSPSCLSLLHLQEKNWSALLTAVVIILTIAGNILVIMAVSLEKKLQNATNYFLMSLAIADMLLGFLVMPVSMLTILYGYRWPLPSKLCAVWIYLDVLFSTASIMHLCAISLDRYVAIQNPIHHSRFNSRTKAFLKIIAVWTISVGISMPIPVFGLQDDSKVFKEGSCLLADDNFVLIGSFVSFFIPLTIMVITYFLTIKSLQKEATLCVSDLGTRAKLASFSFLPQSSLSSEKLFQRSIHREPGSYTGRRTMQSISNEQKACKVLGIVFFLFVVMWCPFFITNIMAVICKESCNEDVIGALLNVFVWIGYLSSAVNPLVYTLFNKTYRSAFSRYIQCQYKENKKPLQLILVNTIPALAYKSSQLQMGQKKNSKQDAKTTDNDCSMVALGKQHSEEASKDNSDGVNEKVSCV

[1] = system: serotonin receptor subtypes; details: cited from earlier work
[2] = system: alpha-adrenergic receptor subtypes; details: cited from earlier work
[3] = system: histamine receptor subtypes; details: cited from earlier work
muscarinic receptors = details: cited from earlier work
sigma sites = details: cited from earlier work
[4] = 2014 study, rank among 30 psychiatric drugs; cited from earlier work
PCP-treated rats [5] = test: Novel Object Recognition (NOR) assay in scPCP model; assay type: in vivo, rat; details: for effect on Discrimination Index (DI): 3 hr post-dose
Protocol: (§1) Differences in discrimination index ((time spent exploring novel−time spent exploring familiar)/total exploration time) are depicted. scPCP rats treated with risperidone (Risp) served as a positive control. […] Rats treated with cariprazine (Cari) served as a positive control.
Efficacy of LB-102, LB-103, and LB-104 at different doses was evaluated in rats in a Novel Object Recognition (NOR) assay, a well-established model recapitulating cognitive and negative aspects of the PANSS scale of schizophrenia. In this assay, animals were treated for several weeks with a low dose of phencyclidine (PCP) to impair the ability of the rat to discern between novel and familiar objects. Typically rats, like humans, would spend more time exploring a novel object than a familiar one.
In this NOR study the efficacies of LB-102, LB-103, and LB-104 were compared to known antipsychotic risperidone for its ability to restore normal differentiation between novel and familiar object exploration in PCP-treated rats. Cognitive measurements were taken at 3 hr post-dose for LB-102, LB-103, and LB-104 and 30 min for risperidone. The endpoint of this study was the Discrimination Index (DI), a normalized ratio of time spent exploring a novel object compared to a familiar one.

PCP-treated rats [6] = test: Social interaction (sniffing index, SI) assay in scPCP model; assay type: in vivo, rat
Protocol: as §1
The sniffing component of the SI assay was carried out as described in (J. C. Neil, S. Barnes, S. Cook, B. Grayson, N. F. Iris, S. L. McLean, S. Snigdha, L. Rajagopa, and M. K. Harte, “Animal models of cognitive dysfunction and negative symptoms of schizophrenia: focus on NMDA receptor antagonism”, Pharmacol. Ther., 2010, 128, 419-423) in groups of 12 rats.

Sequence of D1 receptor subtype (P21728 whole entry): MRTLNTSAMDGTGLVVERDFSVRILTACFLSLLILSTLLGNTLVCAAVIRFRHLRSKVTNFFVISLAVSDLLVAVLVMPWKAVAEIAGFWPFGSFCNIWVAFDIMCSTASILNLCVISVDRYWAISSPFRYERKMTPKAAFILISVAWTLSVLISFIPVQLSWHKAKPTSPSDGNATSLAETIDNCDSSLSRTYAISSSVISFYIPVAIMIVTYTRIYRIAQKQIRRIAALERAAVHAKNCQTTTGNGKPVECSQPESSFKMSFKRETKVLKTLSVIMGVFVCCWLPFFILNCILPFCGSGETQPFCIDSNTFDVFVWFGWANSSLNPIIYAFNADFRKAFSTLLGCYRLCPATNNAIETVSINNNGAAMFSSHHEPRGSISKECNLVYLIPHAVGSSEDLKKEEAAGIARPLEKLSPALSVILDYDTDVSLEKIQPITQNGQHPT

SMILES: CCN1CCCC1CNC(=O)c1cc(S(=O)(=O)CC)c(N)cc1OC (stereo not drawn) [Amisulpride, 4-amino-N-(((1-ethyl-2-pyrrolidinyl)methyl)-5-(ethylsulfonyl))-2-methoxybenzamide]
- affinity (D1 receptor subtype): without any affinity
- affinity (D4 receptor subtype): without any affinity
- affinity (D5 receptor subtype): without any affinity
- activity at the 5-HT2a receptor (5-HT2a receptor): not noted to have any activity
- affinity [1]: low affinity
- affinity [2]: low affinity
- affinity [3]: low affinity
- affinity (muscarinic receptors): low affinity
- affinity (sigma sites): low affinity
- passive diffusion across a PAMPA membrane (Pe) [4]: lowest of 30 psychiatric drugs tested

SMILES: CCN1CCCC1CNC(=O)c1cc(S(=O)(=O)CC)c(NC)cc1OC (racemic) [LB-102]
- NOR result compared to LB-104 (PCP-treated rats [5]): comparable results
- effect on Discrimination Index (DI) (PCP-treated rats [5]; 15 mg/kg): significant improvement
- effect on Discrimination Index (DI) (PCP-treated rats [5]; 45 mg/kg): significant improvement
- effect on sniffing index (social interaction) (PCP-treated rats [6]; 5 mg (printed)): significant effect
- effect on sniffing index (social interaction) (PCP-treated rats [6]; 45 mg/kg): significant effect

SMILES: CCN1CCC[C@@H]1CNC(=O)c1cc(S(=O)(=O)CC)c(NC)cc1OC [LB-104]
- effect on Discrimination Index (DI) (PCP-treated rats [5]; 15 mg/kg): significant improvement
- effect on Discrimination Index (DI) (PCP-treated rats [5]; 45 mg/kg): significant improvement
- effect on sniffing index (social interaction) (PCP-treated rats [6]; 45 mg/kg): significant effect
